Like-named read-outs stand apart in the source and are kept apart here.
Legend:
[1] = system: α-synuclein oligomers (α-synO) binding to neuronal synapses; experiment: Displacement of alpha-synuclein oligomers: α-synO binding to neuronal synapses (ASYO5 immunostaining); assay type: cell-based, Rat; details: 24 hours; for α-synO binding to neuronal synapses: synthetic α-synO, FIG. 1D/1E
Protocol: FIG. 1A is a representative image of a neuron culture with a seeding control (7.1 nM) treated with a vehicle for 24 hours. Cultures were immunostained for the neurite marker microtubule associated protein 2 (MAP2; green) and for α-synuclein oligomers using an alpha-synuclein, oligomer-specific antibody (ASYO5 antibody, Agrisera; red). No α-synOs are present in the vehicle treated cultures.
FIG. 1B is a representative image of a neuron culture treated with synthetic α-synuclein oligomers (1 μM) for 24 hours and immunostained for the neurite marker microtubule associated protein 2 (MAP2; green) and for α-synuclein oligomers using an alpha-synuclein, oligomer-specific antibody (ASYO5 antibody, Agrisera; red).
FIG. 1C is a representative image of a neuron culture treated with synthetic α-synuclein oligomers (1 μM) and Compound A:
(10 μM) for 24 hours and immunostained for the neurite marker microtubule associated protein 2 (MAP2; green) and for α-synuclein oligomers using an alpha-synuclein, oligomer-specific antibody (ASYO5 antibody, Agrisera; red).
FIG. 1D is a graphical representation of binding affinity of α-synuclein oligomers (α-SynO) to neuronal synapses after treatment with vehicle (α-SynO) or treatment with Compound B
FIG. 1E is a graphical representation of binding affinity of α-synuclein oligomers (α-SynO) to neuronal synapses after treatment with vehicle (α-SynO) or treatment with Compound A
(§1) Rat neuronal cultures were treated with vehicle (an a seeding control (7.1 nM) without α-synuclein oligomers (α-synOs)) or synthetic α-synOs for 24 hours. Cultures were immunostained for the neurite marker microtubule associated protein 2 (MAP2; green) and for α-synOs using an alpha-synuclein, oligomer-specific antibody (ASYO5 antibody, Agrisera; red).

[2] = system: α-synO-induced vesicle trafficking deficits; experiment: Vesicle trafficking in neuronal cultures treated with α-synuclein oligomers; assay type: cell-based, Rat; details: α-synOs 1.0 μM final concentration; for Emax / EC50: Rattus norvegicus; for Emax: FIG. 1F/1G, read-out: Emax, amelioration of α-synO vesicle trafficking deficit; for EC50: read-out: EC50, amelioration of α-synO vesicle trafficking deficit
Protocol: FIG. 1F is a graphical representation of vesicular trafficking in untreated control cultures, cultures treated with α-synuclein oligomers (α-SynO) for 24 hours, or cultures treated with α-synuclein oligomers (α-SynO) and Compound B
FIG. 1G is a graphical representation of vesicular trafficking in untreated control cultures, cultures treated with α-synuclein oligomers (α-SynO) for 24 hours, or cultures treated with α-synuclein oligomers (α-SynO) and Compound A
as §1
Untreated vehicle control cultures without any α-SynO addition lack α-synO immunoreactivity (FIG. 1A). […] FIGS. 1D, 1E, 1F, 1G: * p<0.05, **p<0.01, […], ****p<0.001, one-way ANOVA for drug concentration vs control with Dunnett's post-test.

α-synuclein = experiment: Animal models of Parkinson's disease (AAV1/2 A53T-α-synuclein overexpression; intrastriatal α-synuclein preformed fibrils); assay type: in vivo, rat; details: both models of Parkinson's disease
Excerpt: Examples include models of overexpression of α-synuclein or models that mimic the propagation of α-synuclein throughout the brain. One such overexpression model is the rat AAV1/2 A53T-α-synuclein model (Koprich, J. B., Johnston, T. H., Huot, P., Reyes, M. G., Espinosa, M., Brotchie, J. M., “Progressive neurodegeneration or endogenous compensation in an animal model of Parkinson's disease produced by decreasing doses of alpha-synuclein,” PLoS One, 6:1-9 (2011), which is hereby incorporated herein by reference in its entirety), where induction of α-synuclein overexpression is accompanied by loss of nigral dopaminergic cells, lower dopamine transporter levels, lower dopamine levels and motor deficits. Another example uses intrastriatal injection of preformed fibrils of α-synuclein to model propagation of Parkinson's pathology throughout the brain (Duffy, M. F., Collier, T. J., Patterson, J. R., Kemp, C. J., Fischer D. L., Stoll, A. C., Sortwell, C. E., “Quality over quantity: Advantages of using alpha-synuclein preformed fibrils triggered synucleinopathy to model idiopathic Parkinson's disease,” Front Neurosci, 12:1-10 (2018) and Patterson, J. R., Duffy, M. F., Kemp, C. J., Howe, J. W., Collier, T. J., Stoll, A. C., Miller, K. M., Patel, P., Levine, N., Moore, D. J., Luk, K. C., Fleming, S. M., Kanaan, N. M, Paumier, K. L., El Agnaf, O. M. A., Sortwell, C. […]

EC50 ([2]; FIG. 1G) [nM] | EC50 ([2]; FIG. 1F) [nM] | Structure (SMILES) | punctate binding of α-synOs along neurites ([1]; 1 μM α-synO, compound 10 μM, FIG. 1B/1C) | α-synO binding to neuronal synapses [1] | Emax [2] [%] | rescue of α-synO-induced trafficking deficits [2] | deficits characteristic of Parkinson's disease and their propagation throughout the brain (α-synuclein)
650 | – | CC(C)(C)Oc1cc(CCC(C)(C)N2Cc3ccc(S(C)(=O)=O)cc3C2)ccc1O [Compound A] | punctate binding of α-synOs along neurites in the absence (FIG. 1B) but not presence | block α-synO binding to neuronal synapses in a concentration-dependent manner | 87 | rescue α-synO-induced trafficking deficits in a concentration-dependent manner | reduces some or all deficits that are characteristic of Parkinson's disease
– | 310 | CC(C)=C[C@@H](CC(C)(C)c1ccc(C(F)(F)F)cc1)N1CCC(C2CCOCC2)CC1 [Compound B] | – | block α-synO binding to neuronal synapses in a concentration-dependent manner | 92 | rescue α-synO-induced trafficking deficits in a concentration-dependent manner | reduces some or all deficits that are characteristic of Parkinson's disease

From patent US20240165077A1, “COMPOSITIONS AND METHODS FOR TREATING NEUROLOGIC DISEASES” (Cognition Therapeutics, Inc., priority 2021, published 2024)
